Measurements as given in patent US6737383B1, “Herbicidal oxadiazolidines” (priority 1999, dated 2004).

Columns and labels:
[1] = system: rape; experiment: Test B pre/postemergence rape; assay type: in vivo, Brassica napus
In short: (§1)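 Response is a visual 0-to-10 score relative to untreated plants, where 0 means no effect and 10 means complete control, taken twelve to sixteen days after application. Treatments went onto soil at planting and onto foliage of 1- to 4-leaf plants, using a surfactant-containing non-phytotoxic solvent.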

[2] = system: bamyardgrass; experiment: Test B flood test barnyardgrass; assay type: in vivo, Echinochloa crus-galli
In short: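 Read-out is a visual response score from 0 (no effect) to 10 (complete control), assigned by comparison with untreated controls. Treatment was applied at the 2-leaf stage, and plants stayed in the greenhouse for twelve to sixteen days before scoring.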

[3] = system: wheat; experiment: Test B pre/postemergence wheat; assay type: in vivo, Triticum aestivum
In short: as §1

[4] = system: velvetleaf; experiment: Test B pre/postemergence velvetleaf; assay type: in vivo, Abutilon theophrasti
In short: as §1

[5] = Postemergence, Rate 62 g/ha, scale 0 to 10, 0 is no effect, 10 is complete control
[6] = Postemergence, Rate 250 g/ha, scale 0 to 10, 0 no effect, 10 complete control
[7] = Preemergence, Rate 62 g/ha, scale 0 to 10, 0 is no effect, 10 is complete control
[8] = Preemergence, Rate 125 g/ha, scale 0 to 10 (0 no effect, 10 complete control)
[9] = Preemergence, Rate 250 g/ha, scale of 0 to 10 where 0 is no effect and 10 is complete control
[10] = Preemergence, Rate 500 g/ha, scale 0 (no effect) to 10 (complete control)
[11] = Rate 125 g/ha, Postemergence, scale 0 to 10, 0 no effect, 10 complete control
[12] = Rate 500 g/ha, Postemergence, scale 0 to 10, 0 no effect, 10 complete control
[13] = Rate 125 g/ha, Postemergence section (flood test species), scale 0 to 10, 0 no effect, 10 complete control
[14] = Rate 500 g/ha, listed under Postemergence (flood test species), scale 0 to 10, 0 no effect, 10 complete control
[15] = flood test, listed under Postemergence, Rate 250 g/ha, scale 0 to 10, 0 no effect, 10 complete control
[16] = Preemergence, Rate 62 g/ha, scale 0 to 10 (0 no effect, 10 complete control)

Cc1ccccc1-n1c(=O)on(C(=O)N(c2ccc(F)c(F)c2)C(C)C)c1=O [Compound 48]
Rape plant response rating [1, 5]: 0 | Rape plant response rating [1, 6]: 0 | Plant response rating, Rape [1, 7]: 0 | Plant response rating, Rape [1, 8]: 0 | Plant response rating, Rape [1, 9]: 0 | Rape plant response rating [1, 10]: 0 | Rape plant response rating [1, 11]: 0 | Rape plant response rating [1, 12]: 0 | Barnyardgrass plant response rating [2, 5]: 0 | Barnyardgrass plant response rating [2, 13]: 0 | Barnyardgrass plant response rating [2, 14]: 0 | Barnyardgrass plant response rating [2, 15]: 0 | Wheat plant response rating [3, 5]: 0 | Wheat plant response rating [3, 6]: 0 | Plant response rating, Wheat [3, 7]: 0 | Plant response rating, Wheat [3, 8]: 0 | Plant response rating, Wheat [3, 9]: 0 | Wheat plant response rating [3, 10]: 0 | Wheat plant response rating [3, 11]: 0 | Wheat plant response rating [3, 12]: 0 | Velvetleaf plant response rating [4, 5]: 0 | Velvetleaf plant response rating [4, 6]: 0 | Plant response rating, Velvetleaf [4, 7]: 0 | Plant response rating, Velvetleaf [4, 8]: 0 | Plant response rating, Velvetleaf [4, 9]: 0 | Velvetleaf plant response rating [4, 10]: 0 | Velvetleaf plant response rating [4, 11]: 0 | Velvetleaf plant response rating [4, 12]: 0

Cc1cc(C)c(-n2c(=O)on(C(=O)N(c3ccc(Cl)cc3)C(C)C)c2=O)c(C)c1 [Compound 61]
Rape plant response rating [1, 5]: 0 | Rape plant response rating [1, 6]: 0 | Rape plant response rating [1, 16]: 0 | Plant response rating, Rape [1, 8]: 0 | Plant response rating, Rape [1, 9]: 0 | Rape plant response rating [1, 10]: 0 | Rape plant response rating [1, 11]: 0 | Rape plant response rating [1, 12]: 3 | Barnyardgrass plant response rating [2, 5]: 0 | Barnyardgrass plant response rating [2, 13]: 0 | Barnyardgrass plant response rating [2, 14]: 0 | Barnyardgrass plant response rating [2, 15]: 0 | Wheat plant response rating [3, 5]: 0 | Wheat plant response rating [3, 6]: 0 | Wheat plant response rating [3, 16]: 0 | Plant response rating, Wheat [3, 8]: 0 | Plant response rating, Wheat [3, 9]: 0 | Wheat plant response rating [3, 10]: 0 | Wheat plant response rating [3, 11]: 0 | Wheat plant response rating [3, 12]: 0 | Velvetleaf plant response rating [4, 5]: 0 | Velvetleaf plant response rating [4, 6]: 0 | Velvetleaf plant response rating [4, 16]: 0 | Plant response rating, Velvetleaf [4, 8]: 0 | Plant response rating, Velvetleaf [4, 9]: 0 | Velvetleaf plant response rating [4, 10]: 0 | Velvetleaf plant response rating [4, 11]: 0 | Velvetleaf plant response rating [4, 12]: 0

Cc1cccc(C(C)C)c1-n1c(=O)on(C(=O)N(c2ccc(Cl)cc2)C(C)C)c1=O [Compound 64]
Rape plant response rating [1, 5]: 0 | Rape plant response rating [1, 6]: 0 | Rape plant response rating [1, 16]: 0 | Plant response rating, Rape [1, 8]: 0 | Plant response rating, Rape [1, 9]: 0 | Rape plant response rating [1, 10]: 0 | Rape plant response rating [1, 11]: 0 | Rape plant response rating [1, 12]: 0 | Barnyardgrass plant response rating [2, 5]: 0 | Barnyardgrass plant response rating [2, 13]: 0 | Barnyardgrass plant response rating [2, 14]: 0 | Barnyardgrass plant response rating [2, 15]: 0 | Wheat plant response rating [3, 5]: 0 | Wheat plant response rating [3, 6]: 0 | Wheat plant response rating [3, 16]: 0 | Plant response rating, Wheat [3, 8]: 0 | Plant response rating, Wheat [3, 9]: 0 | Wheat plant response rating [3, 10]: 0 | Wheat plant response rating [3, 11]: 0 | Wheat plant response rating [3, 12]: 0 | Velvetleaf plant response rating [4, 5]: 0 | Velvetleaf plant response rating [4, 6]: 0 | Velvetleaf plant response rating [4, 16]: 0 | Plant response rating, Velvetleaf [4, 8]: 0 | Plant response rating, Velvetleaf [4, 9]: 0 | Velvetleaf plant response rating [4, 10]: 0 | Velvetleaf plant response rating [4, 11]: 0 | Velvetleaf plant response rating [4, 12]: 0

Cc1cccc(C(C)C)c1-n1c(=O)on(C(=O)N(c2ccc(F)cc2)C(C)C)c1=O [Compound 65]
Rape plant response rating [1, 5]: 0 | Rape plant response rating [1, 6]: 0 | Rape plant response rating [1, 16]: 0 | Plant response rating, Rape [1, 8]: 0 | Plant response rating, Rape [1, 9]: 0 | Rape plant response rating [1, 10]: 3 | Rape plant response rating [1, 11]: 0 | Rape plant response rating [1, 12]: 0 | Barnyardgrass plant response rating [2, 5]: 0 | Barnyardgrass plant response rating [2, 13]: 0 | Barnyardgrass plant response rating [2, 14]: 2 | Barnyardgrass plant response rating [2, 15]: 0 | Wheat plant response rating [3, 5]: 0 | Wheat plant response rating [3, 6]: 0 | Wheat plant response rating [3, 16]: 0 | Plant response rating, Wheat [3, 8]: 0 | Plant response rating, Wheat [3, 9]: 0 | Wheat plant response rating [3, 10]: 0 | Wheat plant response rating [3, 11]: 0 | Wheat plant response rating [3, 12]: 0 | Velvetleaf plant response rating [4, 5]: 3 | Velvetleaf plant response rating [4, 6]: 3 | Velvetleaf plant response rating [4, 16]: 0 | Plant response rating, Velvetleaf [4, 8]: 0 | Plant response rating, Velvetleaf [4, 9]: 0 | Velvetleaf plant response rating [4, 10]: 0 | Velvetleaf plant response rating [4, 11]: 3 | Velvetleaf plant response rating [4, 12]: 4

CCN(Cc1ccccc1)C(=O)n1oc(=O)n(-c2c(C)cccc2C)c1=O [Compound 70]
Rape plant response rating [1, 5]: 0 | Rape plant response rating [1, 6]: 0 | Rape plant response rating [1, 16]: 0 | Plant response rating, Rape [1, 8]: 0 | Plant response rating, Rape [1, 9]: 0 | Rape plant response rating [1, 10]: 0 | Rape plant response rating [1, 11]: 0 | Rape plant response rating [1, 12]: 0 | Barnyardgrass plant response rating ([2]; Rate 62 g/ha, headed Pre-emergence (flood test species), scale 0 to 10 (0 no effect, 10 complete control)): 0 | Barnyardgrass plant response rating ([2]; Rate 125 g/ha, Pre-emergence, flood test species, scale 0 to 10 where 0 is no effect and 10 is complete control): 0 | Barnyardgrass plant response rating ([2]; Rate 250 g/ha, headed Pre-emergence (flood test species), scale 0 to 10 (0 no effect, 10 complete control)): 0 | Plant response rating, Barnyardgrass ([2]; Rate 500 g/ha, headed Pre-emergence (flood test species), scale 0 to 10 (0 no effect, 10 complete control)): 0 | Wheat plant response rating [3, 5]: 0 | Wheat plant response rating [3, 6]: 0 | Wheat plant response rating [3, 16]: 0 | Plant response rating, Wheat [3, 8]: 0 | Plant response rating, Wheat [3, 9]: 0 | Wheat plant response rating [3, 10]: 0 | Wheat plant response rating [3, 11]: 0 | Wheat plant response rating [3, 12]: 0 | Velvetleaf plant response rating [4, 5]: 0 | Velvetleaf plant response rating [4, 6]: 0 | Velvetleaf plant response rating [4, 16]: 0 | Plant response rating, Velvetleaf [4, 8]: 0 | Plant response rating, Velvetleaf [4, 9]: 0 | Velvetleaf plant response rating [4, 10]: 0 | Velvetleaf plant response rating [4, 11]: 0 | Velvetleaf plant response rating [4, 12]: 0

CC(C)N(C(=O)n1oc(=O)n(Cc2ccccc2)c1=O)c1ccc(F)cc1F [Compound 79]
Rape plant response rating [1, 5]: 0 | Rape plant response rating [1, 6]: 0 | Rape plant response rating [1, 16]: 0 | Plant response rating, Rape [1, 8]: 0 | Plant response rating, Rape [1, 9]: 0 | Rape plant response rating [1, 10]: 0 | Rape plant response rating [1, 11]: 0 | Rape plant response rating [1, 12]: 3 | Barnyardgrass plant response rating [2, 5]: 0 | Barnyardgrass plant response rating [2, 13]: 0 | Barnyardgrass plant response rating [2, 14]: 9 | Barnyardgrass plant response rating [2, 15]: 3 | Wheat plant response rating [3, 5]: 0 | Wheat plant response rating [3, 6]: 0 | Wheat plant response rating [3, 16]: 0 | Plant response rating, Wheat [3, 8]: 0 | Plant response rating, Wheat [3, 9]: 0 | Wheat plant response rating [3, 10]: 2 | Wheat plant response rating [3, 11]: 0 | Wheat plant response rating [3, 12]: 0 | Velvetleaf plant response rating [4, 5]: 0 | Velvetleaf plant response rating [4, 6]: 0 | Velvetleaf plant response rating [4, 16]: 0 | Plant response rating, Velvetleaf [4, 8]: 0 | Plant response rating, Velvetleaf [4, 9]: 0 | Velvetleaf plant response rating [4, 10]: 3 | Velvetleaf plant response rating [4, 11]: 0 | Velvetleaf plant response rating [4, 12]: 3
